Measurements published in US5278181A, “Soluble alkyl[5-[amino (phenyl)methyl]-1H-benzimidazol-2-yl] carbamate anthelmintics” (priority 1992, dated 1994).
Where “and” joins values, the source holds several entries; their conditions need not be identical. Equal values may be shown once.

Test system: Acanthocheilonema viteae
Test: Antifilarial dual infection screen in jirds: adult A. viteae burden and microfilaremia
Type: in vivo, in Mongolian jirds
Text: Dual infections of the filarial worms Brugia pahangi and Acanthocheilonema viteae in jirds are used routinely for antifilarial screening [McCall, J. W., McTier, T. L., and Rowan, S. J., "In vivo models for evaluating potential antifilarial agents", Onchocerciasis/Filariasis (Proceedings of a Symposium sponsored by the World Health Organization), Kalamazoo, Mich., Apr. 8-10, 23-24 (1986)].
For this dual infection screen, male Mongolian jirds weighing 50-60 g are infected SC with 10 (5 male and 5 female) adult A. viteae, transplanted under sodium pentobarbital anesthesia (48 mg/kg) from donor hamsters infected SC 8 weeks earlier. Two weeks later, 20 (10 male and 10 female) adult B. pahangi, taken from donor jirds infected IP 8 weeks earlier, are transplanted into the peritoneal cavity of each jird under sodium pentobarbital anesthesia. After an additional week, when the jirds have acceptable levels of microfilaremia, they are randomly allocated to treatment groups of 3 animals each and a nontreated group of 4-6 animals. Microfilaremia is determined on days 0 (just prior to the first dose), 4 and 56 post-treatment. Unless indicated otherwise, compounds are suspended in hydroxyethylcellulose (0.5%) - Tween 80 (0.1%) and administered SC at 100 mg/kg/day for 5 consecutive days. All jirds are killed on day 56 post-treatment to determine the effects of drugs on adults of A. viteae and B. pahangi. Live worms are identified as to species, noted as to sex, and counted. The number of dead and/or encapsulated worms is also recorded. A reduction of ≥80% in microfilaremia or ≥50% in adult worm burden (either species) compared with pre-treatment microfilaremia or non-treated control worm burden, respectively, is considered to be significant. For secondary testing with this dual infection screen, groups of 7 animals each are used. For oral dosing, drugs are dissolved or suspended in hydroxyethylcellulose - Tween 80 and administered by gavage.

With `COC(=O)Nc1nc2cc(C(N)c3ccc(F)cc3)ccc2[nH]1.Cl.Cl` (racemic) [Example 2, Methyl (±)-[5-[Amino(4Fluorophenyl)Methyl]-1H-Benzimidazol-2-yl]Carbamate Dihy drochloride Salt] the “% Macrofilarial reduction, A. viteae” value (1.56 mg/kg/day × 5 days, SC, day 56) was 48%, the “% Microfilarial reduction, A. viteae, Day 4” value (3.13 mg/kg/day × 5 days, SC) was 88% and the “% Microfilarial reduction, A. viteae, Day 56” value (3.13 mg/kg/day × 5 days, SC) was 100%. For the same molecule, the “% Macrofilarial reduction, A. viteae” value (3.13 mg/kg/day × 5 days, SC, day 56, 3.13 mg/kg/day) was 74% and 69%, the “% Microfilarial reduction, A. viteae, Day 4” value (6.25 mg/kg/day × 5 days, SC) was 83% and the “% Microfilarial reduction, A. viteae, Day 56” value (6.25 mg/kg/day × 5 days, SC) was 100%. The “% Macrofilarial reduction, A. viteae” value (6.25 mg/kg/day × 5 days, SC, day 56) was 100%, the “% Macrofilarial reduction, A. viteae” value (12.5 mg/kg/day × 1 day, SC, day 56) was 83% and the “% Microfilarial reduction, A. viteae, Day 4” value (12.5 mg/kg/day × 5 days, SC) was 80%. The “% Microfilarial reduction, A. viteae, Day 56” value (12.5 mg/kg/day × 5 days, SC) was 100%, the “% Macrofilarial reduction, A. viteae” value (12.5 mg/kg/day × 5 days, SC, day 56) was 100% and the “% Macrofilarial reduction, A. viteae” value (25 mg/kg/day × 1 day, SC, day 56) was 96%. The “% Macrofilarial reduction, A. viteae” value (25 mg/kg/day × 5 days, SC, day 56) was 100%, the “% Macrofilarial reduction, A. viteae” value (75 mg/kg/day × 5 days, oral, day 56) was 83% and the “% Microfilarial reduction, A. viteae, Day 4” value (100 mg/kg/day × 5 days, oral) was 50%. For the same molecule, the “% Microfilarial reduction, A. viteae, Day 56” value (100 mg/kg/day × 5 days, oral) was 75% and the “% Macrofilarial reduction, A. viteae” value (100 mg/kg/day × 5 days, oral, day 56) was 80%.
